# Results as given in article PMC6199309, “A therapeutic approach to pantothenate kinase associated neurodegeneration” (Nature Communications, 2018).
# Key:
# AURKA = biological target: T1, AURKA (Homo sapiens, UniProt O14965); assay: KINOMEscan; assay type: binding; conditions: read-out: %Ctrl @ 10000nM
# T1 construct: purchased DiscoverX KINOMEscan
# CIT = biological target: T2, CIT (Homo sapiens, UniProt O14578); assay: KINOMEscan; assay type: binding; conditions: read-out: %Ctrl @ 10000nM
# T2 construct: purchased DiscoverX KINOMEscan
# CSNK2A1 = biological target: T3, CSNK2A1 (Homo sapiens, UniProt P68400); assay: KINOMEscan; assay type: binding; conditions: read-out: %Ctrl @ 10000nM
# T3 construct: purchased DiscoverX KINOMEscan
# EPHA4 = biological target: T4, EPHA4 (Homo sapiens, UniProt P54764); assay: KINOMEscan; assay type: binding; conditions: read-out: %Ctrl @ 10000nM
# T4 construct: purchased DiscoverX KINOMEscan
# EPHA5 = biological target: T5, EPHA5 (Homo sapiens, UniProt P54756); assay: KINOMEscan; assay type: binding; conditions: read-out: %Ctrl @ 10000nM
# T5 construct: purchased DiscoverX KINOMEscan
# EPHA8 = biological target: T6, EPHA8 (Homo sapiens, UniProt P29322); assay: KINOMEscan; assay type: binding; conditions: read-out: %Ctrl @ 10000nM
# T6 construct: purchased DiscoverX KINOMEscan
# EPHB1 = biological target: T7, EPHB1 (Homo sapiens, UniProt P54762); assay: KINOMEscan; assay type: binding; conditions: read-out: %Ctrl @ 10000nM
# T7 construct: purchased DiscoverX KINOMEscan
# EPHB6 = biological target: T8, EPHB6 (Homo sapiens, UniProt O15197); assay: KINOMEscan; assay type: binding; conditions: read-out: %Ctrl @ 10000nM
# T8 construct: purchased DiscoverX KINOMEscan
# GRK7 = biological target: T9, GRK7 (Homo sapiens, UniProt Q8WTQ7); assay: KINOMEscan; assay type: binding; conditions: read-out: %Ctrl @ 10000nM
# T9 construct: purchased DiscoverX KINOMEscan
# ITK = biological target: T10, ITK (Homo sapiens, UniProt Q08881); assay: KINOMEscan; assay type: binding; conditions: read-out: %Ctrl @ 10000nM
# T10 construct: purchased DiscoverX KINOMEscan
# JNK2 = biological target: T11, JNK2 (Homo sapiens, UniProt P45984); assay: KINOMEscan; assay type: binding; conditions: read-out: %Ctrl @ 10000nM
# T11 construct: purchased DiscoverX KINOMEscan
# MARK4 = biological target: T12, MARK4 (Homo sapiens, UniProt Q96L34); assay: KINOMEscan; assay type: binding; conditions: read-out: %Ctrl @ 10000nM
# T12 construct: purchased DiscoverX KINOMEscan
# MET(M1250T) = biological target: T13, MET(M1250T) (Homo sapiens, UniProt P08581, M1250T); assay: KINOMEscan; assay type: binding; conditions: read-out: %Ctrl @ 10000nM
# T13 construct: purchased DiscoverX KINOMEscan
# MLCK = biological target: T14, MLCK (Homo sapiens, UniProt Q32MK0); assay: KINOMEscan; assay type: binding; conditions: read-out: %Ctrl @ 10000nM
# T14 construct: purchased DiscoverX KINOMEscan
# MYO3A = biological target: T15, MYO3A (Homo sapiens, UniProt Q8NEV4); assay: KINOMEscan; assay type: binding; conditions: read-out: %Ctrl @ 10000nM
# T15 construct: purchased DiscoverX KINOMEscan
# NEK1 = biological target: T16, NEK1 (Homo sapiens, UniProt Q96PY6); assay: KINOMEscan; assay type: binding; conditions: read-out: %Ctrl @ 10000nM
# T16 construct: purchased DiscoverX KINOMEscan
# OSR1 = biological target: T17, OSR1 (Homo sapiens, UniProt O95747); assay: KINOMEscan; assay type: binding; conditions: read-out: %Ctrl @ 10000nM
# T17 construct: purchased DiscoverX KINOMEscan
# PAK3 = biological target: T18, PAK3 (Homo sapiens, UniProt O75914); assay: KINOMEscan; assay type: binding; conditions: read-out: %Ctrl @ 10000nM
# T18 construct: purchased DiscoverX KINOMEscan
# PCTK2 = biological target: T19, PCTK2 (Homo sapiens, UniProt Q00537); assay: KINOMEscan; assay type: binding; conditions: read-out: %Ctrl @ 10000nM
# T19 construct: purchased DiscoverX KINOMEscan
# PDPK1 = biological target: T20, PDPK1 (Homo sapiens, UniProt O15530); assay: KINOMEscan; assay type: binding; conditions: read-out: %Ctrl @ 10000nM
# T20 construct: purchased DiscoverX KINOMEscan
# PRKCE = biological target: T21, PRKCE (Homo sapiens, UniProt Q02156); assay: KINOMEscan; assay type: binding; conditions: read-out: %Ctrl @ 10000nM
# T21 construct: purchased DiscoverX KINOMEscan
# RET(M918T) = biological target: T22, RET(M918T) (Homo sapiens, UniProt P07949, M918T); assay: KINOMEscan; assay type: binding; conditions: read-out: %Ctrl @ 10000nM
# T22 construct: purchased DiscoverX KINOMEscan
# RIPK2 = biological target: T23, RIPK2 (Homo sapiens, UniProt O43353); assay: KINOMEscan; assay type: binding; conditions: read-out: %Ctrl @ 10000nM
# T23 construct: purchased DiscoverX KINOMEscan
# [1] = biological target: T24, RPS6KA4(Kin.Dom.2-C-terminal) (Homo sapiens, UniProt O75676); assay: KINOMEscan; assay type: binding; conditions: read-out: %Ctrl @ 10000nM
# T24 construct: RPS6KA4(Kin.Dom.2-C-terminal); purchased DiscoverX KINOMEscan
# [2] = biological target: T25, RSK2(Kin.Dom.2-C-terminal) (Homo sapiens, UniProt P51812); assay: KINOMEscan; assay type: binding; conditions: read-out: %Ctrl @ 10000nM
# T25 construct: RSK2(Kin.Dom.2-C-terminal); purchased DiscoverX KINOMEscan
# TEC = biological target: T26, TEC (Homo sapiens, UniProt P42680); assay: KINOMEscan; assay type: binding; conditions: read-out: %Ctrl @ 10000nM
# T26 construct: purchased DiscoverX KINOMEscan
# ULK3 = biological target: T27, ULK3 (Homo sapiens, UniProt Q6PHR2); assay: KINOMEscan; assay type: binding; conditions: read-out: %Ctrl @ 10000nM
# T27 construct: DNA label for qPCR (T7 phage fusion or DNA tag); purchased DiscoverX scanMAX; host or cells: E. coli BL21-derived (T7 phage) or HEK-293
# VRK2 = biological target: T28, VRK2 (Homo sapiens, UniProt Q86Y07); assay: KINOMEscan; assay type: binding; conditions: read-out: %Ctrl @ 10000nM
# T28 construct: DNA label for qPCR (T7 phage fusion or DNA tag); purchased DiscoverX scanMAX; host or cells: E. coli BL21-derived (T7 phage) or HEK-293
# Plasma stability = assay type: in vitro ADME; conditions: rat, read-out: Plasma Stability T1/2 (converted)
# [3] = tested on: 72 cellular proteins known to cause off-target effects; assay: SAFETYscan off-target panel; conditions: 1 and 10 μM
# [4] = PZ-2891 levels in plasma, liver and brain tissue; assay type: in vivo, mouse; conditions: 225 ppm PZ-2891 in diet, 4 weeks
# Method: Plasma (20 μl) was added to 100 μl acetonitrile containing 0.6 μM warfarin to a final concentration of 0.5 μM. The samples were incubated on ice for 30 min. Samples were spun at 3500×g for 10 min to pellet debris, and the supernatant was transferred to a glass vial. […] Tissue was homogenized in 2 ml of 80% methanol containing 0.1 μM warfarin, and incubated at −80 °C for 4 h. Samples were spun at 3500×g for 10 min to pellet debris, supernatant was transferred to a glass tube and dried down using a Savant SPD1010 Speed-Vac (Thermo Scientific) overnight. Samples were resuspended in 400 μl of 80% acetonitrile to a final concentration of 0.5 μM and transferred to a glass vial.
# Samples (5 μl) were injected onto an XSelect® HSS C18, 2.5 μm, 3.0 × 150 mm column (Waters) using a flow rate of 0.25 ml/min. Solvent A was 0.1% formic acid in water, and Solvent B was acetonitrile + 0.1% formic acid. The HPLC program was the following: starting solvent mixture of 50% B, 0–0.5 min isocratic with 50% B; 0.5–1.5 min linear gradient to 95% B; 1.5–20 min isocratic with 95% B; 20–21 min linear gradient to 50% B; 21–25 min isocratic with 50% B. The QTrap 4500 was operated in the positive mode, and the ion source parameters were: ion spray voltage, 5500 V; curtain gas, 30 psi; temperature, 450 °C; collision gas, medium; ion source gas 1, 30 psi; and ion source gas 2, 40 psi. […]
# Supplementary Fig. 11. […]. […]
# Protein binding = conditions: mouse
# T14 sequence (Q32MK0 whole entry): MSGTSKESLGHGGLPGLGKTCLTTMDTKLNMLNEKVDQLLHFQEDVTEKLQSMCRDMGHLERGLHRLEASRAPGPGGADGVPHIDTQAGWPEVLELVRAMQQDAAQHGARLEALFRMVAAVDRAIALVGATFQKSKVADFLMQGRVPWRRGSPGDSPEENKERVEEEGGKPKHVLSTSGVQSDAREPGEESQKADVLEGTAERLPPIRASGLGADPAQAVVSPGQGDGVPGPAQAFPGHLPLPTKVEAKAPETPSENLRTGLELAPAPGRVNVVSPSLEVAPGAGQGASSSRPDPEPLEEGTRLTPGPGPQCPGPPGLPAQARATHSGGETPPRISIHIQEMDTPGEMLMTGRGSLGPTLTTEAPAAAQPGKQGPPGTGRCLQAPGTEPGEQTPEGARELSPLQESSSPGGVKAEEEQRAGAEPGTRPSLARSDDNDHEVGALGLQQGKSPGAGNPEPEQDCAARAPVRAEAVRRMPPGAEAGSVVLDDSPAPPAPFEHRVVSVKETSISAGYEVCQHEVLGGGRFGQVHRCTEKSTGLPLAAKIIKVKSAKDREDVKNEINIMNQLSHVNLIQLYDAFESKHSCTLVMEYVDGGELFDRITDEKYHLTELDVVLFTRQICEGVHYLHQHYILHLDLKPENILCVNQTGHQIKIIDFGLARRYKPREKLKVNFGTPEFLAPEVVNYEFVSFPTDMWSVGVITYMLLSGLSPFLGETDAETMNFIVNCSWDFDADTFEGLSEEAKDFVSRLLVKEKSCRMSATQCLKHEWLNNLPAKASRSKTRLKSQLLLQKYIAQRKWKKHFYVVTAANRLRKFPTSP
# T28 sequence (Q86Y07 whole entry, the tested form may be a part): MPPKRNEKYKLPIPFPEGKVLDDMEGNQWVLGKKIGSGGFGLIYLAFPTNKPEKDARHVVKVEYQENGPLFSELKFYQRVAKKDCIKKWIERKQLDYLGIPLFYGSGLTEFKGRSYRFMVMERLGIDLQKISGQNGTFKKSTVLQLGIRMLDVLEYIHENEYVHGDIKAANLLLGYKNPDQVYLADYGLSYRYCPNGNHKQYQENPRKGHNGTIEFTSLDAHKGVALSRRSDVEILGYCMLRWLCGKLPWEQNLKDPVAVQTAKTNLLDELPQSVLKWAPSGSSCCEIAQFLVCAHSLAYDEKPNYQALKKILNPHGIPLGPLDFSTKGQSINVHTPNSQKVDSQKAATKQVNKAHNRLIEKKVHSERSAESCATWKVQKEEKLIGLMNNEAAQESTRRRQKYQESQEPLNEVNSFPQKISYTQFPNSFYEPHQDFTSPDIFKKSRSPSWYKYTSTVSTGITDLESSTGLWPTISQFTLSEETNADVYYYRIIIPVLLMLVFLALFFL
# T23 sequence (O43353 whole entry): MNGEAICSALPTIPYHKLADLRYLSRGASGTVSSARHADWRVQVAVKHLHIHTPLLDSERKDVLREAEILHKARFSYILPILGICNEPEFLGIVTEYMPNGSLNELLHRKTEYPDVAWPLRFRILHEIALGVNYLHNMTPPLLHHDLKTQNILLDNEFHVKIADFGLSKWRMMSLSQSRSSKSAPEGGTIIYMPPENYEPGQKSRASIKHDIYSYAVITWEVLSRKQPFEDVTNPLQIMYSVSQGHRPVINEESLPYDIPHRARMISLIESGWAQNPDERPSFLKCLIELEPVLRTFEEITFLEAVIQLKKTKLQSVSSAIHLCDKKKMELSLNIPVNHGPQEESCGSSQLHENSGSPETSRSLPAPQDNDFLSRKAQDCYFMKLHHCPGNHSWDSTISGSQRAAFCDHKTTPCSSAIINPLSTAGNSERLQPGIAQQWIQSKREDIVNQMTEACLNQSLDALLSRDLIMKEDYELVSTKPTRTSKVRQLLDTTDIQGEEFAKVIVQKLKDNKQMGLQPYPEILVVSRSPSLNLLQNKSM
# T2 sequence (O14578 whole entry): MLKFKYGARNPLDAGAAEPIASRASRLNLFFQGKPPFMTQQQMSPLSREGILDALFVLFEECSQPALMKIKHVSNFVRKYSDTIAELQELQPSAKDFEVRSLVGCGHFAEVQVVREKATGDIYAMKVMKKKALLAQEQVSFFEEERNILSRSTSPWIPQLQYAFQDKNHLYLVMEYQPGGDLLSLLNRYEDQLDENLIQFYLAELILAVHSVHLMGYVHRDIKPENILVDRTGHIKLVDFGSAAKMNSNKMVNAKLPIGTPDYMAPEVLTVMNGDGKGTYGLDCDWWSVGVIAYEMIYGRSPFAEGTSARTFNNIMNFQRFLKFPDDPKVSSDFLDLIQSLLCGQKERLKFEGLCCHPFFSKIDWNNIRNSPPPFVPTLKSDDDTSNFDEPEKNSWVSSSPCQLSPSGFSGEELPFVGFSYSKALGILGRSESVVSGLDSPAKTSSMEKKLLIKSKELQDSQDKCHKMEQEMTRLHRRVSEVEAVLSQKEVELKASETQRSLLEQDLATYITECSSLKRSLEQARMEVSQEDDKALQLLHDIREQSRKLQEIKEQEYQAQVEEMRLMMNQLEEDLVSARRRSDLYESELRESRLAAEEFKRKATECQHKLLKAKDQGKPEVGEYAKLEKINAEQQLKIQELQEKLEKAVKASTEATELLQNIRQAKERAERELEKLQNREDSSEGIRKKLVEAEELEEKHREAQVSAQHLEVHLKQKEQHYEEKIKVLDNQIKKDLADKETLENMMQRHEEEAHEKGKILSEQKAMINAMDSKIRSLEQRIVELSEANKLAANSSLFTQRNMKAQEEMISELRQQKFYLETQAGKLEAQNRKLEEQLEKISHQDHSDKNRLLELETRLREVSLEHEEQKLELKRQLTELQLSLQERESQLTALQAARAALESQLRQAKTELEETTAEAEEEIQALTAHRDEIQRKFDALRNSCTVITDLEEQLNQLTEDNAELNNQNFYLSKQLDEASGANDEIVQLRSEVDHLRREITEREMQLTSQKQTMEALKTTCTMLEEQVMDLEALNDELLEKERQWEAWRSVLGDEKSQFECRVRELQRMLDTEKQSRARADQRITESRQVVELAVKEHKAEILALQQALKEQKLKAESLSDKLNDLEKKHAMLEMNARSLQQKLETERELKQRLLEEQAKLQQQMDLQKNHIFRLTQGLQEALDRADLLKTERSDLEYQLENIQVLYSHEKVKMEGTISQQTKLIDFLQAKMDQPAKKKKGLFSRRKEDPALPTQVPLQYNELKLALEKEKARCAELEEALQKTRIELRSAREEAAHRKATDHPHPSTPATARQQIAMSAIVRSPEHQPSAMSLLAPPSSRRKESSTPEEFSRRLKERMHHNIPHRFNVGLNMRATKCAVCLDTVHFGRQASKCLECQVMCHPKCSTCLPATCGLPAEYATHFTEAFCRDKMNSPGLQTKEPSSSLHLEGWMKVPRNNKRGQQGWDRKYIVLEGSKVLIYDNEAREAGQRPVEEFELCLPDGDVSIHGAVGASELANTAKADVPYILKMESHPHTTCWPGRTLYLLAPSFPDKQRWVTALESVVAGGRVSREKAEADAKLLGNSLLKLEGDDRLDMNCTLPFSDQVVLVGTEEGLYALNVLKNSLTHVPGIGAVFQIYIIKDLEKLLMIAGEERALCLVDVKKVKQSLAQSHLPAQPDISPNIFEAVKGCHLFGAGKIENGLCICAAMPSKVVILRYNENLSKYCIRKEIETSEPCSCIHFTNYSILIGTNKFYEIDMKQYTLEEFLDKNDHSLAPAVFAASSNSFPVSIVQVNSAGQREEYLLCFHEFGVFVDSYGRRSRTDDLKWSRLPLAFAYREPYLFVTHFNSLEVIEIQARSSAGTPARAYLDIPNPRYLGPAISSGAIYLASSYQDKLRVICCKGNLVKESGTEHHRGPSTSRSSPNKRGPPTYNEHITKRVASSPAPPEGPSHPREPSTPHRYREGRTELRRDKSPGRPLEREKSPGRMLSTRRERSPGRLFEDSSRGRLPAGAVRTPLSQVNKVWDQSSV
# T6 sequence (P29322 28-1005): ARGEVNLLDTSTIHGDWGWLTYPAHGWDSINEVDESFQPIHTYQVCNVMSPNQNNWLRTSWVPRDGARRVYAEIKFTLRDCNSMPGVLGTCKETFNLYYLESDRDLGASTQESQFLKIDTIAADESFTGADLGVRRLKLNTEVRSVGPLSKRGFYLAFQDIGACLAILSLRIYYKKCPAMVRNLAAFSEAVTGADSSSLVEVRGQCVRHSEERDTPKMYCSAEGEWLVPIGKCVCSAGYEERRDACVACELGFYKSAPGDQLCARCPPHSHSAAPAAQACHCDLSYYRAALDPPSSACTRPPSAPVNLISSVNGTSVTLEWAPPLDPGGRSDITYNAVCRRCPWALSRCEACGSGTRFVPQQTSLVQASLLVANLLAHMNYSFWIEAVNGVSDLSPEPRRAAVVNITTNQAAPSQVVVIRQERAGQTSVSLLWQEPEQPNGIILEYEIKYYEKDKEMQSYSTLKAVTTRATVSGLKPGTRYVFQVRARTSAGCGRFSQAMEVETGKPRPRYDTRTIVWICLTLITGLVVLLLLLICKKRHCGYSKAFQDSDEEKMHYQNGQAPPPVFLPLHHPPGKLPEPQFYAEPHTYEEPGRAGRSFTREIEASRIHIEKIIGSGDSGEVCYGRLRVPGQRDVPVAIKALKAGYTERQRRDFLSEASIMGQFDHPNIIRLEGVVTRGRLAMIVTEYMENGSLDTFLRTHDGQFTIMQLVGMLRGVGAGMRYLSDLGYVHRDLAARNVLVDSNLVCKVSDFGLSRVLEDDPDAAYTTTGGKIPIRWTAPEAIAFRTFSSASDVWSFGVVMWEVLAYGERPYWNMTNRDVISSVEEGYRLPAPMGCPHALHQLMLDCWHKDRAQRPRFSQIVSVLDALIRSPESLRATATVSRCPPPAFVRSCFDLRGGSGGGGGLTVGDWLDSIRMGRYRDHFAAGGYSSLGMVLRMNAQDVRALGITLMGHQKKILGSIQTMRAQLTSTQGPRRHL
smiles,measurement,setting,value
"CC(C)c1ccc(CC(=O)N2CCN(c3ccc(C#N)nn3)CC2)cc1 [PZ-2891, 6-(4-(2-(4-isopropylphenyl)acetyl)piperazin-1-yl)pyridazine-3-carbonitrile]",remaining binding at 10 µM,AURKA,75%
same,remaining binding at 10 µM,CIT,97%
same,remaining binding at 10 µM,CSNK2A1,82%
same,remaining binding at 10 µM,EPHA4,93%
same,remaining binding at 10 µM,EPHA5,88%
same,remaining binding at 10 µM,EPHA8,95%
same,remaining binding at 10 µM,EPHB1,90%
same,remaining binding at 10 µM,EPHB6,68%
same,remaining binding at 10 µM,GRK7,93%
same,remaining binding at 10 µM,ITK,89%
same,remaining binding at 10 µM,JNK2,79%
same,remaining binding at 10 µM,MARK4,81%
same,remaining binding at 10 µM,MET(M1250T),98%
same,remaining binding at 10 µM,MLCK,100%
same,remaining binding at 10 µM,MYO3A,68%
same,remaining binding at 10 µM,NEK1,100%
same,remaining binding at 10 µM,OSR1,87%
same,remaining binding at 10 µM,PAK3,88%
same,remaining binding at 10 µM,PCTK2,95%
same,remaining binding at 10 µM,PDPK1,75%
same,remaining binding at 10 µM,PRKCE,70%
same,remaining binding at 10 µM,RET(M918T),95%
same,remaining binding at 10 µM,RIPK2,89%
same,remaining binding at 10 µM,[1],67%
same,remaining binding at 10 µM,[2],89%
same,remaining binding at 10 µM,TEC,79%
same,remaining binding at 10 µM,ULK3,89%
same,remaining binding at 10 µM,VRK2,70%
same,half-life,Plasma stability,> 3000 min
same,off-target pharmacological interactions,[3],absence of off-target pharmacological interactions
same,PZ-2891 levels in tissues,[4],presence of drug in liver and brain
same,fraction unbound,Protein binding,0.08
